Measured values published in PubChem BioAssay AID179 (DTP/NCI, 2004).
pEC50, pIC50: −log10 of the molar value. Active and inactive are the calls of the source.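 The calls were made as follows: active = compounds giving half or more protection of infected cells from virus-caused growth loss, again on retest; inactive = the rest.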 Where a SMILES comes first, the peptide text is derived from it. [ ]: non-standard residue; d: D form. The star is where a group is joined. ξ: configuration not given here. X13 = COc1ccc(C(N*)c2ccc(OC)cc2)cc1; NMeF = CN[C@@H](Cc1ccccc1)C(=O)O; NMeD = CN[C@@H](CC(=O)O)C(=O)O; NMeV = CN[C@H](C(=O)O)C(C)C; ξNMeV = CNC(C(=O)O)C(C)C; Boc = CC(C)(C)OC(=O)*; ξNMeA = CNC(C)C(=O)O; ξV = CC(C)C(N)C(=O)O

Test system: CEM cells HIV-1 protection, formazan growth assay
Assay: NCI AIDS Antiviral Assay
Conditions: for pIC50: measured here: growth of uninfected CEM cells
Procedure: The ability of compounds to protect human CEM cells from HIV-1 infection is measured as a screen for new compounds capable of inhibiting the HIV virus. Five concentrations of drug were tested on uninfected and infected cells and cell growth was measured using a soluble formazan assay. […] Compounds that provided at least 50% protection were retested. Compounds that provided at least 50% protection on retest were listed as moderately active. Compounds that reproducibly provided 100% protection were listed as confirmed active. […] Note that the inability to provide protection could be due to toxicity.

Row | Structure (SMILES) | pEC50 | pIC50 | outcome
1 | O=C1c2ccccc2C(=Nc2ccc3ccccc3c2)C1(C1=C(c2ccccc2)C(=Nc2ccc3ccccc3c2)c2ccccc21)c1ccccc1 (stereo not given) | < 3.70 | 4.93 | 
2 | S=C1Cc2c(-c3ccc(Cl)cc3)cc(-c3ccccc3)nc2-c2ccccc2N1 | < 3.70 | 4.68 | 
3 | CC(C)(C)O/C=C1/C(=O)OC2C[C@@H](O[Si](C)(C)C(C)(C)C)CC12 (stereo not given in full) | < 3.70 | 3.92 | 
4 | CCN(CC)CC(=O)Nc1ccc(C)c(Cl)c1 | < 3.70 | 3.95 | 
5 | ON/N=C/c1cc2c(cc1Br)OCO2 | < 3.58 | 3.73 | 
6 | c1ccc(C(CNCCN2CCCCCC2)C2CCCCC2)cc1 (stereo not given) | < 4.00 | 4.94 | 
7 | C=C(C)C1Cc2c(cc(OC)c3c(=O)c4ccccc4n(C)c23)O1 (stereo not given) | < 4.65 | < 4.65 | 
8 | CO/N=C1\CC(n2cc(C)c(=O)[nH]c2=O)OC1CO (stereo not given) | < 3.70 | < 3.70 | 
9 | O=C(CCN1CCCC1)c1ccc(Oc2ccc(F)cc2)cc1 | < 3.70 | 3.96 | 
10 | O=C1c2cscc2C(=O)c2sccc21 | < 3.70 | 4.63 | 
11 | Cc1cccc(NC(=O)CC(=O)N2N=C(N(CCC#N)c3ccccc3Cl)CC2c2ccccc2)c1 (stereo not given) | < 3.73 | < 3.73 | 
12 | Cc1ccccc1N=Nc1c(S(=O)(=O)O)cc2cc(NC(=O)Nc3ccc4c(O)c(N=Nc5ccc6cc(S(=O)(=O)O)ccc6c5)c(S(=O)(=O)O)cc4c3)ccc2c1O |  |  | active
13 | CCOP(=O)(CCC(O)CNc1nc(N)nc(Cl)c1N=Nc1ccc(Cl)cc1)OCC (stereo not given) | < 3.70 | 5.19 | 
14 | COc1ccccc1/C=C1\NC(=S)N(/C=C2\C(=O)Oc3ccccc3C2=O)C1=O | < 3.70 | 4.09 | 
15 | Cc1cc(N(CCC#N)CCC#N)ccc1/C(Sc1ccccc1)=C(\NC(=O)/C=C/c1ccccc1)C(=O)Sc1ccccc1 | < 4.67 | 4.90 | 
16 | CN(C)c1cccc2c1C(=O)C=CC21c2ccc(N(C)C)c3c(N(C)C)ccc(c23)C(c2ccccc2)C1c1ccccc1 (stereo not given) | < 4.00 | 5.15 | 
17 | C[n+]1c(-c2ccc(/C=N/Nc3ccnc(N/N=C/c4ccc(-c5cn6ccsc6[n+]5C)cc4)n3)cc2)cn2ccsc21 | 4.94 | 4.38 | 
18 | FC(F)(F)c1ccc(C2ON=C(c3ccccc3)N2C23CC4CC(CC(C4)C2)C3)cc1 (stereo not given) | < 3.70 | < 3.70 | 
19 | C[C@]12CC[C@H](O)C[C@@H]1CC[C@@H]1[C@@H]2CC[C@]2(C)c3nc4ccccc4cc3C[C@@H]12 | < 3.70 | 5.09 | 
20 | Cc1ccc(-c2nc3n(c2/C=N\N=C(N)N)CCS3)cc1 | < 3.70 | 4.53 | 

Row | Structure (SMILES) | pEC50 | pIC50 | outcome
21 | COc1ccc(C(NC(=O)C[C@@H](C(=O)N(C)C(C)C(=O)O)N(C)C(=O)[C@@H]2CCCN2C(=O)[C@H](C(C)C)N(C)C(=O)C(C(C)C)N(C)C(=O)[C@H](Cc2ccccc2)N(C)C(=O)C(NC(=O)OC(C)(C)C)C(C)C)c2ccc(OC)cc2)cc1 (stereo not given in full) (Boc-[ξV][NMeF][ξNMeV][NMeV]P[NMeD](X13)[ξNMeA]-OH) | < 3.80 | 4.63 | 
22 | CC1c2c(cc(=O)[nH]c2O)C(=O)N1C (stereo not given) | < 3.61 | < 3.61 | 
23 | CC(C)CCCC(C)[C@H]1CC[C@H]2[C@@H]3CC[C@H]4C[C@@H](CCC=C(c5cc(Cl)c(OCc6cccc([N+](=O)[O-])c6)c(C(=O)O)c5)c5cc(Cl)c(OCc6cccc([N+](=O)[O-])c6)c(C(=O)O)c5)CC[C@]4(C)[C@H]3CC[C@]12C (stereo not given in full) | 4.02 | < 3.70 | 
24 | O=C1Oc2ccccc2C(=O)/C1=C/N1C(=O)/C(=C/c2ccc([N+](=O)[O-])cc2)SC1=S | < 3.70 | 5.96 | 
25 | CSc1nc2[nH]ccc2c(=O)[nH]1 |  |  | inactive
26 | C=C1CCC(OC(C)=O)C2(C)C(OC(C)=O)CC3OC3(C)C2C(OC(C)=O)C2C(C)C(=O)OC2C1Cl (stereo not given) | < 3.70 | < 3.70 | 
27 | O=C(NC(=O)c1c(F)cccc1F)Nc1ncc(Br)cc1Br | < 3.70 | < 3.70 | 
28 | CSC1=NN(C)C2(CCCCC2)C(=O)N1 | 4.86 | 3.24 | 
29 | Sc1cc2c(c3ccccc13)Nc1ccccc1S2 | < 3.70 | 3.91 | 
30 | COC(=O)NCC(OCc1cc2c(cc1I)OCO2)C1=CCCCC1 (stereo not given) | < 4.53 | < 4.53 | 
31 | CC(O)=NC(Cc1ccc2ccccc2c1)C(O)=NC(Cc1ccc(Cl)cc1)C(O)=NC(Cc1c[nH]c2ccccc12)C(O)=NC(CO)C(O)=NC(Cc1ccc(O)cc1)C(O)=NC(CCCN=C(N)N)C(O)=NC(CC(C)C)C(O)=NC(CCCN=C(N)N)C(=O)N1CCCC1C(O)=NC(C)C(=N)O (stereo not given) | < 4.06 | < 4.06 | 
32 | O=C1OCC(Cc2ccc(O)c(O)c2)[C@H]1Cc1ccc(O)c(O)c1 (stereo not given in full) | < 3.70 | 4.72 | 
33 | O=c1c2ncn(CCCl)c2n(-c2ccccc2)c(=S)n1-c1ccccc1 | < 3.70 | < 3.70 | 
34 | CSCC(NP1(=O)SC(NN=C(C)C)=NC1(C)C)C(=O)O (stereo not given) | < 3.15 | < 3.15 | 
35 | CN1C2CC(=O)CC1[C@@H]1OC(c3ccccc3)O[C@H]21 (stereo not given in full) | < 3.70 | < 3.70 | 
36 | Cc1cc(S(=O)(=O)Nc2nc(N)nc(N3CCOCC3)n2)c(SCC(=O)O)cc1Cl | < 3.70 | < 3.70 | 
37 | CC1CC[C@@]2(O)C(CCCC2(C)C)[C@]1(C)CCc1ccoc1 (stereo not given in full) |  |  | inactive
38 | CC(=O)Nc1cc2cc(NC(=O)C(Cl)(Cl)Cl)ccc2oc1=O | < 4.09 | < 4.09 | 
39 | O=C(Nc1nc2ncn(CCI)c2c(=O)[nH]1)c1ccccc1 | < 4.20 | < 4.20 | 
